# Measured values reported in US11752188B2, “Compositions and methods for nutritional supplements” (DailyColors Health Inc., priority 2020, dated 2023).
# Like-named read-outs stand apart in the source and are kept apart here.
# Assays:
# Type in all cases: biochemical
# recombinant human JAK1 = recombinant human JAK1 (Homo sapiens, UniProt P23458); assay: JAK1 Kinase-Glo Plus luminescence kinase assay
# recombinant human JAK2 = recombinant human JAK2 (Homo sapiens, UniProt O60674); assay: JAK2 Kinase-Glo Plus luminescence kinase assay
# recombinant human JAK2, sequence (O60674 whole entry): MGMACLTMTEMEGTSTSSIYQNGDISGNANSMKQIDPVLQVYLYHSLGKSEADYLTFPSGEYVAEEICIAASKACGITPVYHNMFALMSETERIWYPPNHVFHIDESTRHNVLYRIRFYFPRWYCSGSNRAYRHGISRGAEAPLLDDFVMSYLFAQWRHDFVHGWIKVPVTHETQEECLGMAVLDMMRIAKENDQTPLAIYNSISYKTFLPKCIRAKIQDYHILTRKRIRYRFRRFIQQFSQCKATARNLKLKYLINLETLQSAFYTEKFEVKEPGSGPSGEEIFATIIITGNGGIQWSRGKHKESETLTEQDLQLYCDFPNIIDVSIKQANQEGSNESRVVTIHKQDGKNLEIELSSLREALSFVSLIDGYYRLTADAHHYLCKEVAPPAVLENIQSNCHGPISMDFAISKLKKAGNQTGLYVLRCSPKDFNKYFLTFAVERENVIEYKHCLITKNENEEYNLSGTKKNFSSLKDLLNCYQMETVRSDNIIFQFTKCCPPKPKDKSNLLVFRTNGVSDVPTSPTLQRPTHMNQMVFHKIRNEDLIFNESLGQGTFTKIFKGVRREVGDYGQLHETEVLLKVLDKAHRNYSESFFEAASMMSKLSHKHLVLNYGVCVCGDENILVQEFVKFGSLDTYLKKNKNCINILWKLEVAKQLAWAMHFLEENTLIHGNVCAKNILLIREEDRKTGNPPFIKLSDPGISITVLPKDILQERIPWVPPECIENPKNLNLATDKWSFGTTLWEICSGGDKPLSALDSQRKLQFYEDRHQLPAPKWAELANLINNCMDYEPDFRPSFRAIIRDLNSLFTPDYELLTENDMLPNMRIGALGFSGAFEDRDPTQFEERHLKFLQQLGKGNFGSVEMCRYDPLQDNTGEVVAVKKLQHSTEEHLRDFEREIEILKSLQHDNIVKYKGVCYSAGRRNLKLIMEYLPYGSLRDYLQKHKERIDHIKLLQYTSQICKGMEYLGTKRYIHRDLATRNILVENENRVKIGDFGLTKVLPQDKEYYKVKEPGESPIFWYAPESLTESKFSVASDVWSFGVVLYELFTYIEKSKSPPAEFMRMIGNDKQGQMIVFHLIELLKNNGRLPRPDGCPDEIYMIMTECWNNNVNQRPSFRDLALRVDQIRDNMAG
# recombinant human JAK3 = biological target: T1, recombinant human JAK3 (Homo sapiens, UniProt P52333); assay: JAK3 Kinase-Glo Plus luminescence kinase assay
# T1 sequence (P52333 1-1124): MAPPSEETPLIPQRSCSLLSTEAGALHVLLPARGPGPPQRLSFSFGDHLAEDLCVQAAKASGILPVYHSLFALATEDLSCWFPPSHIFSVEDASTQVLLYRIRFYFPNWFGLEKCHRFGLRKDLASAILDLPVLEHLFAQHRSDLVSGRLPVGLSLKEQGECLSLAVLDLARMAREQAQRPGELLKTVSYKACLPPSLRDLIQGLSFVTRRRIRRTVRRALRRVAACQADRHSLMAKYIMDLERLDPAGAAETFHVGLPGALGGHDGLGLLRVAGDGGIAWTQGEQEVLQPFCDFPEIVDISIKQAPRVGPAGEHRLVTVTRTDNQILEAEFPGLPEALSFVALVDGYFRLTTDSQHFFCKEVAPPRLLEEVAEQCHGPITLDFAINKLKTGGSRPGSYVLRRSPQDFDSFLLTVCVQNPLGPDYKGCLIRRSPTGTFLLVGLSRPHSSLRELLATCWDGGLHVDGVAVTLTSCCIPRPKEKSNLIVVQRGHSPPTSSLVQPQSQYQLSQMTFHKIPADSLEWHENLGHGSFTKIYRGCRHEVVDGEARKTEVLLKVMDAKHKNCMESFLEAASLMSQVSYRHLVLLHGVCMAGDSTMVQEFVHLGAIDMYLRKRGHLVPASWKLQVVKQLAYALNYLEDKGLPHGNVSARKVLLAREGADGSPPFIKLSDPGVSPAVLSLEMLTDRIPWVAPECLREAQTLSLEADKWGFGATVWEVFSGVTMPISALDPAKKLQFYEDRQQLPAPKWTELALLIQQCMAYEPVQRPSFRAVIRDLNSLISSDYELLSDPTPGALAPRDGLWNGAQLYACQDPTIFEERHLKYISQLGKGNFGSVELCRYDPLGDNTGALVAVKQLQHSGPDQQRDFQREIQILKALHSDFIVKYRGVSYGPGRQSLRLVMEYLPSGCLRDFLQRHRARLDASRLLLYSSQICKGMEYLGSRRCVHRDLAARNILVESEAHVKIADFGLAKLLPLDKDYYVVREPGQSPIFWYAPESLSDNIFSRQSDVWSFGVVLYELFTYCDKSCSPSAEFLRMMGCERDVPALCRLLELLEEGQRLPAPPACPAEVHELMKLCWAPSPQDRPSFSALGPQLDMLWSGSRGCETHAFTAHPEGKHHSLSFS
# recombinant human JAK1, sequence (P23458 whole entry): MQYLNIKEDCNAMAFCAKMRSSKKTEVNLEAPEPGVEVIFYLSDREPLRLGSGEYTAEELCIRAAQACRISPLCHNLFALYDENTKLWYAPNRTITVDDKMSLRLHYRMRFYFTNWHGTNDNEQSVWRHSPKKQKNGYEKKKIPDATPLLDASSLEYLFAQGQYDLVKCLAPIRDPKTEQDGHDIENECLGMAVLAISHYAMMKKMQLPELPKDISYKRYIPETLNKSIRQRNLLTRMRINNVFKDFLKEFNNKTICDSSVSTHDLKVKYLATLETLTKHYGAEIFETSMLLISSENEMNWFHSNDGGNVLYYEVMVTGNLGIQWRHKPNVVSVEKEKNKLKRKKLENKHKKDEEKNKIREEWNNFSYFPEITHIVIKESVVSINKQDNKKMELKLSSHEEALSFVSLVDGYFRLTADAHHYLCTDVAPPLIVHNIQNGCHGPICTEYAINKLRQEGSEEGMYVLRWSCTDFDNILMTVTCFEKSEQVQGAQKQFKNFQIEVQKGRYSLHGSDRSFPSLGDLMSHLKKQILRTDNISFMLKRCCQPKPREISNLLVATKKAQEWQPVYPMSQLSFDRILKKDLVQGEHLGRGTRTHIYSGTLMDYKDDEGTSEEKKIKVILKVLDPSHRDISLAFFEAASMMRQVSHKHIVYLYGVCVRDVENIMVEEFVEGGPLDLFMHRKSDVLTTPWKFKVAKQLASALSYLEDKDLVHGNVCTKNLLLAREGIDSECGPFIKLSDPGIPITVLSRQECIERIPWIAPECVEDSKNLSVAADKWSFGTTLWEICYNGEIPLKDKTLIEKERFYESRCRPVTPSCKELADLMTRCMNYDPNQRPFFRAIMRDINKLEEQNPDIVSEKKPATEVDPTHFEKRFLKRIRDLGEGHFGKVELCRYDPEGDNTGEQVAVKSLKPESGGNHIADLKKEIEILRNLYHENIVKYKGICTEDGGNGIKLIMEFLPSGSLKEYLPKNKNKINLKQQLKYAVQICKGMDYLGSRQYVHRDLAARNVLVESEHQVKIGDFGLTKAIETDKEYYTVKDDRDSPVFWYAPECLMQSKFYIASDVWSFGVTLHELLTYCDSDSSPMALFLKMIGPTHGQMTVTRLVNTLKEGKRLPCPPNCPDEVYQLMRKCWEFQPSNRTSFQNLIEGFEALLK
smiles,measurement,setting,value
CN[C@@H]1C[C@H]2O[C@@](C)([C@@H]1OC)n1c3ccccc3c3c4c(c5c6ccccc6n2c5c31)C(=O)NC4 [Staurosporine],inhibition at 0.001 µM,recombinant human JAK1,7%
same,inhibition at 0.01 µM,recombinant human JAK1,72%
same,Kinase Activity Luminescence Repeat1,"recombinant human JAK1; 0.001 μM, TABLE 68",25176
same,Kinase Activity Luminescence Repeat2,"recombinant human JAK1; 0.001 μM, TABLE 68",27054
same,Kinase Activity Luminescence Repeat1,"recombinant human JAK1; 1 nM, TABLE 71",21164
same,Kinase Activity Luminescence Repeat2,"recombinant human JAK1; 1 nM, TABLE 71",24810
same,Kinase Activity Luminescence Repeat1,"recombinant human JAK1; 0.01 μM, TABLE 68",37642
same,Kinase Activity Luminescence Repeat2,"recombinant human JAK1; 0.01 μM, TABLE 68",35358
same,Kinase Activity Luminescence Repeat1,"recombinant human JAK1; 10 nM, TABLE 71",28640
same,Kinase Activity Luminescence Repeat2,"recombinant human JAK1; 10 nM, TABLE 71",32000
same,Kinase Activity Luminescence Repeat1,"recombinant human JAK1; 0.1 μM, TABLE 68",40161
same,Kinase Activity Luminescence Repeat2,"recombinant human JAK1; 0.1 μM, TABLE 68",40781
same,Kinase Activity Luminescence Repeat1,"recombinant human JAK1; 100 nM, TABLE 71",36908
same,Kinase Activity Luminescence Repeat2,"recombinant human JAK1; 100 nM, TABLE 71",39509
same,activity at 0.001 µM,"recombinant human JAK1; read-out: % Activity Repeat1, 0.001 μM, TABLE 68",99%
same,activity at 0.001 µM,"recombinant human JAK1; read-out: % Activity Repeat1, 1 nM, TABLE 71",88%
same,activity at 0.01 µM,"recombinant human JAK1; read-out: % Activity Repeat1, 10 nM, TABLE 71",52%
same,activity at 0.1 µM,"recombinant human JAK1; read-out: % Activity Repeat1, 0.1 μM, TABLE 68",5%
same,activity at 0.1 µM,"recombinant human JAK1; read-out: % Activity Repeat1, 100 nM, TABLE 71",11%
same,activity at 0.001 µM,"recombinant human JAK1; read-out: % Activity Repeat2, 0.001 μM, TABLE 68",87%
same,activity at 0.001 µM,"recombinant human JAK1; read-out: % Activity Repeat2, 1 nM, TABLE 71",70%
same,activity at 0.1 µM,"recombinant human JAK1; read-out: % Activity Repeat2, 0.1 μM, TABLE 68",1%
same,activity at 0.1 µM,"recombinant human JAK1; read-out: % Activity Repeat2, 100 nM, TABLE 71",0%
same,inhibition at 0.01 µM,recombinant human JAK1; read-out: % Inhibition JAK1,56%
same,inhibition at 0.1 µM,recombinant human JAK1; read-out: % Inhibition JAK1,94%
same,Kinase Activity Luminescence Repeat1,"recombinant human JAK2; 0.001 μM, TABLE 69",19100
same,Kinase Activity Luminescence Repeat2,"recombinant human JAK2; 0.001 μM, TABLE 69",20922
same,inhibition at 0.001 µM,"recombinant human JAK2; 0.001 μM, TABLE 69",0%
same,activity at 0.001 µM,"recombinant human JAK2; 0.001 μM, TABLE 69, read-out: % Activity Repeat1",105%
same,activity at 0.001 µM,"recombinant human JAK2; 0.001 μM, TABLE 69, read-out: % Activity Repeat2",96%
same,Kinase Activity Luminescence Repeat1,"recombinant human JAK2; 1 nM, TABLE 72",9482
same,Kinase Activity Luminescence Repeat2,"recombinant human JAK2; 1 nM, TABLE 72",10430
same,activity at 0.001 µM,"recombinant human JAK2; 1 nM, TABLE 72, read-out: % Activity Repeat1",89%
same,activity at 0.001 µM,"recombinant human JAK2; 1 nM, TABLE 72, read-out: % Activity Repeat2",86%
same,Kinase Activity Luminescence Repeat1,"recombinant human JAK2; 0.01 μM, TABLE 69",36988
same,Kinase Activity Luminescence Repeat2,"recombinant human JAK2; 0.01 μM, TABLE 69",36554
same,activity at 0.01 µM,"recombinant human JAK2; 0.01 μM, TABLE 69, read-out: % Activity Repeat1",16%
same,activity at 0.01 µM,"recombinant human JAK2; 0.01 μM, TABLE 69, read-out: % Activity Repeat2",18%
same,inhibition at 0.01 µM,"recombinant human JAK2; 0.01 μM, TABLE 69, read-out: % Inhibition",83%
same,Kinase Activity Luminescence Repeat1,"recombinant human JAK2; 10 nM, TABLE 72",17529
same,Kinase Activity Luminescence Repeat2,"recombinant human JAK2; 10 nM, TABLE 72",16180
same,activity at 0.01 µM,"recombinant human JAK2; 10 nM, TABLE 72, read-out: % Activity Repeat1",65%
same,activity at 0.01 µM,"recombinant human JAK2; 10 nM, TABLE 72, read-out: % Activity Repeat2",69%
same,inhibition at 0.01 µM,"recombinant human JAK2; 10 nM, TABLE 74 summary, read-out: % Inhibition JAK2",33%
same,Kinase Activity Luminescence Repeat1,"recombinant human JAK2; 0.1 μM, TABLE 69",42700
same,Kinase Activity Luminescence Repeat2,"recombinant human JAK2; 0.1 μM, TABLE 69",40639
same,inhibition at 0.1 µM,"recombinant human JAK2; 0.1 μM, TABLE 69",100%
same,activity at 0.1 µM,"recombinant human JAK2; 0.1 μM, TABLE 69, read-out: % Activity Repeat1",0%
same,activity at 0.1 µM,"recombinant human JAK2; 0.1 μM, TABLE 69, read-out: % Activity Repeat2",0%
same,Kinase Activity Luminescence Repeat1,"recombinant human JAK2; 100 nM, TABLE 72",34660
same,Kinase Activity Luminescence Repeat2,"recombinant human JAK2; 100 nM, TABLE 72",34762
same,inhibition at 0.001 µM,recombinant human JAK3,19%
same,inhibition at 0.01 µM,recombinant human JAK3,65%
same,inhibition at 0.1 µM,recombinant human JAK3,100%
same,Kinase Activity Luminescence Repeat1,"recombinant human JAK3; 0.001 μM, TABLE 70",23814
same,Kinase Activity Luminescence Repeat2,"recombinant human JAK3; 0.001 μM, TABLE 70",23348
same,Kinase Activity Luminescence Repeat1,"recombinant human JAK3; 1 nM, TABLE 73",21050
same,Kinase Activity Luminescence Repeat2,"recombinant human JAK3; 1 nM, TABLE 73",24827
same,Kinase Activity Luminescence Repeat1,"recombinant human JAK3; 0.01 μM, TABLE 70",32137
same,Kinase Activity Luminescence Repeat2,"recombinant human JAK3; 0.01 μM, TABLE 70",32417
same,Kinase Activity Luminescence Repeat1,"recombinant human JAK3; 10 nM, TABLE 73",32876
same,Kinase Activity Luminescence Repeat2,"recombinant human JAK3; 10 nM, TABLE 73",34538
same,Kinase Activity Luminescence Repeat1,"recombinant human JAK3; 0.1 μM, TABLE 70",39970
same,Kinase Activity Luminescence Repeat2,"recombinant human JAK3; 0.1 μM, TABLE 70",40121
same,Kinase Activity Luminescence Repeat1,"recombinant human JAK3; 100 nM, TABLE 73",37496
same,Kinase Activity Luminescence Repeat2,"recombinant human JAK3; 100 nM, TABLE 73",39233
same,activity at 0.001 µM,"recombinant human JAK3; read-out: % Activity Repeat1, 0.001 μM, TABLE 70",80%
same,activity at 0.001 µM,"recombinant human JAK3; read-out: % Activity Repeat1, 1 nM, TABLE 73",84%
same,activity at 0.01 µM,"recombinant human JAK3; read-out: % Activity Repeat1, 10 nM, TABLE 73",27%
same,activity at 0.1 µM,"recombinant human JAK3; read-out: % Activity Repeat1, 0.1 μM, TABLE 70",0%
same,activity at 0.1 µM,"recombinant human JAK3; read-out: % Activity Repeat1, 100 nM, TABLE 73",5%
same,activity at 0.001 µM,"recombinant human JAK3; read-out: % Activity Repeat2, 0.001 μM, TABLE 70",82%
same,activity at 0.001 µM,"recombinant human JAK3; read-out: % Activity Repeat2, 1 nM, TABLE 73",66%
same,activity at 0.01 µM,"recombinant human JAK3; read-out: % Activity Repeat2, 0.01 μM, TABLE 70",35%
same,activity at 0.01 µM,"recombinant human JAK3; read-out: % Activity Repeat2, 10 nM, TABLE 73",20%
same,activity at 0.1 µM,"recombinant human JAK3; read-out: % Activity Repeat2, 0.1 μM, TABLE 70",0%
same,activity at 0.1 µM,"recombinant human JAK3; read-out: % Activity Repeat2, 100 nM, TABLE 73",0%
same,inhibition at 0.001 µM,recombinant human JAK3; read-out: % Inhibition JAK3,25%
same,inhibition at 0.01 µM,recombinant human JAK3; read-out: % Inhibition JAK3,77%
same,inhibition at 0.1 µM,recombinant human JAK3; read-out: % Inhibition JAK3,97%
